Earlier results, collected in patent publication US20120027718A1, “COMBINATION THERAPY WITH GLATIRAMER ACETATE AND RASAGILINE FOR THE TREATMENT OF MULTIPLE SCLEROSIS” (Teva Pharmaceutical Industries, Ltd., priority 2005, published 2012).

Tests used:
[1] = system: models of traumatic head injury; conditions: in vivo
stroke models = conditions: in vivo

Compound: L-glutamic acid polymer with L-alanine, L-lysine and L-tyrosine, acetate (salt) [Glatiramer acetate]
- relapse rates, progression of disability, appearance of new lesions by MRI and appearance of black holes (multiple sclerosis (MS); daily subcutaneous injections, 20 mg/injection): reduce
- efficacy in treating multiple sclerosis (multiple sclerosis (MS); human, in vivo): effective

Compound: C#CCN[C@@H]1CCc2ccccc21 [Rasagiline, R(+)-N-propargyl-1-aminoindan]
- efficacy in models of traumatic head injury [1]: effective
- efficacy in stroke models (stroke models): effective
